Data: patent publication US9512107B2, “Therapeutically active compositions and their methods of use” (Agios Pharmaceuticals, Inc., priority 2012, dated 2016)

Experiments:
[1] = target: T1, IDH2 R140Q (Homo sapiens, UniProt P48735, R140Q); test: IDH2 R140Q enzymatic assay (cofactor depletion, similar format); format: biochemical; conditions: read-out: Enz R140Q
T1 sequence (P48735 40-452 R140Q): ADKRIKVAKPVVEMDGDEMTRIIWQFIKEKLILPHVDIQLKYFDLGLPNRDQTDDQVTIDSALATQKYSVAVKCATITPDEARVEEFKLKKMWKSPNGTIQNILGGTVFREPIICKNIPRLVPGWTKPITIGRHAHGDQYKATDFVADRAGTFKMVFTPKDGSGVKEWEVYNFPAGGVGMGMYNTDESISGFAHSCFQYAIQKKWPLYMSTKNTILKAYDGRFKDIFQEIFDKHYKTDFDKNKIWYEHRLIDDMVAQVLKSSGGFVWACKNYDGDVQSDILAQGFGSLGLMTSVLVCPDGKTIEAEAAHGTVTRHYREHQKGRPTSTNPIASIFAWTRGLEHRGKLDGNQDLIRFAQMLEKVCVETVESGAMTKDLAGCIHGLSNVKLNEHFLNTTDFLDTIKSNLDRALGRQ

[2] = test system: U87MG pLVX-IDH2 R140Q-neo cells; test: U87MG pLVX-IDH2 R140Q-neo cell based assay, 2-HG in media by LC-MS at 48 hours; conditions: Homo sapiens, U-87 MG
How it was run: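 U87MG cells stably expressing IDH2 R140Q were seeded overnight, then exposed to compound at 0.2% final DMSO at 37 °C, 5% CO2. 2-HG in the medium was quantified by LC-MS at 48 h. Growth inhibition was read by CellTiter-Glo luminescence at 72 h.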

Structure (SMILES)	IC50 [1] [nM]	IC50 [2] [nM]
CC(C)(O)CNc1nc(Nc2cncc(C(F)(F)F)c2)nc(-c2cccc(Cl)n2)n1 [Compound 367, 1-(4-(6-chloropyridin-2-yl)-6-(5-(trifluoromethyl)pyridin-3-ylamino)-1,3,5-triazin-2-ylamino)-2-methylpropan-2-ol]	100 to 1000	< 100
CC(C)(O)CNc1nc(Nc2ccnc(F)c2)nc(-c2cccc(Cl)n2)n1 [Compound 368, 1-(4-(6-chloropyridin-2-yl)-6-(2-fluoropyridin-4-ylamino)-1,3,5-triazin-2-ylamino)-2-methylpropan-2-ol]	1000 to 10000	< 100
CC(C)Nc1nc(Nc2ccnc(C#N)c2)nc(-c2ccccc2F)n1 [Compound 369, 4-(4-(2-fluorophenyl)-6-(isopropylamino)-1,3,5-triazin-2-ylamino)picolinonitrile]	< 100	< 100
CC(C)Nc1nc(Nc2ccnc(C(F)(F)F)c2)nc(-c2ccccc2F)n1 [Compound 370, 6-(2-fluorophenyl)-N^2-isopropyl-N^4-(2-(trifluoromethyl)pyridin-4-yl)-1,3,5-triazine-2,4-diamine]	< 100	< 100
CC(C)Nc1nc(Nc2ccnc(F)c2)nc(-c2ccccc2F)n1 [Compound 371, 6-(2-fluorophenyl)-N^2-(2-fluoropyridin-4-yl)-N^4-isopropyl-1,3,5-triazine-2,4-diamine]	< 100	< 100
CC(C)Nc1nc(Nc2cccc(S(=O)(=O)N3CCC3)c2)nc(-c2ccccc2)n1 [Compound 376, N^2-(3-(azetidin-1-ylsulfonyl)phenyl)-N^4-isopropyl-6-phenyl-1,3,5-triazine-2,4-diamine]	100 to 1000	< 100
FC(F)(F)c1cc(Nc2nc(NC3COC3)nc(-c3cccc(C(F)(F)F)n3)n2)ccn1 [Compound 378, N^2-(oxetan-3-yl)-6-(6-(trifluoromethyl)pyridin-2-yl)-N^4-(2-(trifluoromethyl)pyridin-4-yl)-1,3,5-triazine-2,4-diamine]	100 to 1000	< 100
CC(C)Nc1nc(Nc2cncc(C#N)c2)nc(-c2cccc(Cl)n2)n1 [Compound 382, 5-(4-(6-chloropyridin-2-yl)-6-(isopropylamino)-1,3,5-triazin-2-ylamino)nicotinonitrile]	100 to 1000	< 100
CC(C)Nc1nc(Nc2cncc(F)c2)nc(-c2cccc(Cl)n2)n1 [Compound 383, 6-(6-chloropyridin-2-yl)-N^2-(5-fluoropyridin-3-yl)-N^4-isopropyl-1,3,5-triazine-2,4-diamine]	100 to 1000	< 100

Now from value to molecule:

IC50 [1] [nM]	IC50 [2] [nM]	Structure (SMILES)
100 to 1000	< 100	Fc1cc(Nc2nc(NC3COC3)nc(-c3cccc(C(F)(F)F)n3)n2)ccn1 [Compound 377, N^2-(2-fluoropyridin-4-yl)-N^4-(oxetan-3-yl)-6-(6-(trifluoromethyl)pyridin-2-yl)-1,3,5-triazine-2,4-diamine]
100 to 1000	< 100	FC(F)(F)c1cncc(Nc2nc(NC3COC3)nc(-c3cccc(C(F)(F)F)n3)n2)c1 [Compound 379, N^2-(oxetan-3-yl)-6-(6-(trifluoromethyl)pyridin-2-yl)-N^4-(5-(trifluoromethyl)pyridin-3-yl)-1,3,5-triazine-2,4-diamine]
100 to 1000	100 to 1000	Fc1ccc(Nc2nc(NC3COC3)nc(-c3cccc(C(F)(F)F)n3)n2)cn1 [Compound 380, N^2-(6-fluoropyridin-3-yl)-N^4-(oxetan-3-yl)-6-(6-(trifluoromethyl)pyridin-2-yl)-1,3,5-triazine-2,4-diamine]
100 to 1000	< 100	Fc1cncc(Nc2nc(NC3COC3)nc(-c3cccc(C(F)(F)F)n3)n2)c1 [Compound 381, N^2-(5-fluoropyridin-3-yl)-N^4-(oxetan-3-yl)-6-(6-(trifluoromethyl)pyridin-2-yl)-1,3,5-triazine-2,4-diamine]
